Test systems include Escherichia coli; Staphylococcus aureus; Escherichia coli ML-35p; Escherichia coli UB1005.
Common to all, as to assay: ≥ marks a high value that may be exact or a test limit, other limits are often not marked, values filed in µg/mL are converted to µM
Experiment [1] deals with Candida albicans ATCC 24433.
For experiment [2], the system named is Candida parapsilosis ATCC 22019.
In experiment [3] the test system is Trichophyton rubrum ATCC 28189.
Experiment [4] has as its system Acinetobacter baumannii 7226/16.
The subject of experiment [5] is Escherichia coli ESBL 521/17.
Experiment [6] deals with Klebsiella pneumoniae ESBL 344/17.
For experiment [7], the system named is Pseudomonas aeruginosa 522/17.
In experiment [8] the test system is Staphylococcus aureus 1399/17.
The test system of experiment [9] is Staphylococcus aureus ATCC 33591.
Experiment [10] has as its system Staphylococcus aureus SG511.
In experiment [11] the test system is Escherichia coli ATCC 25922.
The test system of experiment [12] is Listeria monocytogenes EGD.
In experiment [13] the test system is Pseudomonas aeruginosa ATCC 27853.
Experiment [14] has as its system Staphylococcus aureus ATCC 25923.
Experiment [15] relates to Candida albicans NCYC 1467.
The subject of experiment [16] is Enterococcus faecalis NCTC 12697.
The subject of experiment [17] is Escherichia coli NCTC 10418.
For experiment [18], the system named is Klebsiella pneumoniae ATCC 43816.
Experiment [19] relates to Staphylococcus aureus NCTC 10788.
Experiment [20] concerns Staphylococcus aureus NCTC 12493.
The subject of experiment [21] is Candida albicans ATCC 90028.
The subject of experiment [22] is Staphylococcus epidermidis ATCC 12228.
The test system of experiment [23] is Bacillus subtilis CMCC 63501.
In experiment [24] the test system is Enterococcus faecalis ATCC 29212.
Experiment [25] deals with Salmonella enterica subsp. enterica serovar Pullorum C79-13.
In experiment [26] the test system is Salmonella enterica subsp. enterica serovar Typhimurium ATCC 14028.
The subject of experiment [27] is Staphylococcus aureus ATCC 29213.

Values after ≈ are worked out from the molar mass of the structure shown.

As usually defined, the MIC is the lowest concentration found to suppress growth.

For `CC[C@H](C)[C@H](NC(=O)[C@H](CCCCN)NC(=O)[C@H](CCC(=O)O)NC(=O)[C@H](CO)NC(=O)[C@H](CCCN=C(N)N)NC(=O)[C@@H](N)CO)C(=O)N[C@H](C(=O)N[C@@H](Cc1cnc[nH]1)C(=O)N[C@@H](CCC(N)=O)C(=O)N[C@@H](CCCN=C(N)N)C(=O)N[C@@H](CC(C)C)C(=O)N[C@@H](Cc1ccccc1)C(N)=O)C(C)C` [SRSEKIVHQRLF], the MIC in experiment [1] is no less than 267 µM; in [2], no less than 267 µM; against Escherichia coli, greater than 267 µM; with Staphylococcus aureus, greater than 267 µM; in experiment [3] it was no less than 267 µM.

Take `CC[C@H](C)[C@H](NC(=O)[C@H](CCCN=C(N)N)NC(=O)[C@@H](NC(=O)[C@H](Cc1ccccc1)NC(=O)[C@@H]1CCCN1C(=O)[C@@H]1CCCN1C(=O)[C@@H]1CCCN1C(=O)[C@H](Cc1cnc[nH]1)NC(=O)[C@@H](NC(=O)[C@H](CCCN=C(N)N)NC(=O)[C@H](CCCN=C(N)N)NC(=O)[C@H](Cc1ccccc1)NC(=O)[C@@H]1CCCN1C(=O)[C@H](CC(C)C)NC(=O)[C@H](CCCN=C(N)N)NC(=O)[C@H](Cc1ccccc1)NC(=O)[C@@H](N)CCCN=C(N)N)[C@@H](C)CC)C(C)C)C(=O)N[C@@H](Cc1cnc[nH]1)C(=O)N1CCC[C@H]1C(=O)N1CCC[C@H]1C(=O)N1CCC[C@H]1C(=O)N[C@@H](Cc1ccccc1)C(=O)N[C@@H](Cc1ccc(O)cc1)C(=O)N[C@@H](CCCN=C(N)N)C(=O)N[C@@H](CCCN=C(N)N)C(=O)N[C@@H](Cc1ccccc1)C(=O)N[C@@H](CC(C)C)C(=O)O` [RFRLPFRRIHPPPFVRIHPPPFYRRFL]: the MIC in experiment [4] stood at 4 µM (≈ 14.1 µg/mL); in experiment [5] it was 5.66 µM (≈ 19.9 µg/mL); with Escherichia coli ML-35p, 2.83 µM (≈ 9.95 µg/mL); in [6], 8 µM (≈ 28.1 µg/mL); in [7] it was 16 µM (≈ 56.3 µg/mL); in experiment [8], 8 µM (≈ 28.1 µg/mL). For the same compound, the MIC in experiment [9] stood at 16 µM (≈ 56.3 µg/mL); in experiment [10] it was 0.25 µM (≈ 0.879 µg/mL).

Take `CC[C@H](C)[C@H](NC(=O)[C@H](C)NC(=O)[C@H](CCCCN)NC(=O)[C@@H](NC(=O)[C@H](CC(C)C)NC(=O)[C@H](C)NC(=O)CNC(=O)[C@@H](NC(=O)[C@H](CCCCN)NC(=O)[C@H](Cc1ccccc1)NC(=O)[C@H](Cc1ccc(O)cc1)NC(=O)[C@H](CCCCN)NC(=O)[C@H](CCCCN)NC(=O)[C@H](CC(C)C)NC(=O)[C@@H](NC(=O)CNC(=O)[C@@H](NC(=O)[C@@H](N)CCCCN)[C@@H](C)CC)C(C)C)[C@@H](C)CC)[C@@H](C)CC)C(=O)N[C@H](C(=O)N[C@@H](CCCCN)C(N)=O)[C@@H](C)CC` [KIGVLKKYFKIGALIKAIIK]: the MIC in experiment [11] turned out to be 8 µM (≈ 18 µg/mL); in experiment [12], 1 µM (≈ 2.24 µg/mL); in experiment [13], 2 µM (≈ 4.49 µg/mL); in [14], 8 µM (≈ 18 µg/mL).

On to `CC[C@H](C)[C@@H]1NC(=O)[C@H](C)NC(=O)[C@@H](NC(=O)[C@H](Cc2ccccc2)NC(=O)[C@@H](NC(=O)[C@H](CCCCN)NC(=O)[C@H](Cc2c[nH]c3ccccc23)NC(=O)[C@@H]2CCCN2C(=O)[C@H](CC(C)C)NC(=O)[C@H](Cc2ccccc2)NC(=O)[C@@H](N)CCCCN)[C@@H](C)CC)CSSC[C@@H](C(=O)O)NC(=O)[C@H](CCCCN)NC(=O)[C@H](CCCCN)NC(=O)[C@H]([C@@H](C)O)NC1=O` [KFLPWKIFCAITKKC], for which the MIC in [15] is 16 µM (≈ 29.2 µg/mL); in experiment [16] it was no less than 256 µM; in experiment [17] it was 16 µM (≈ 29.2 µg/mL); in experiment [18], no less than 64 µM; in [13], 128 µM (≈ 234 µg/mL); in [19] it was 8 µM (≈ 14.6 µg/mL). Besides, in [20], the minimum inhibitory concentration (MIC) turned out to be 8 µM (≈ 14.6 µg/mL).

Take `CC[C@H](C)[C@H](NC(=O)[C@H](C)NC(=O)[C@@H](NC(=O)[C@@H](NC(=O)[C@@H](NC(=O)CNC(=O)[C@H](CCCCN)NC(=O)[C@H](CCCCN)NC(=O)CNC(=O)[C@@H](N)CCCCN)C(C)C)[C@@H](C)CC)[C@@H](C)CC)C(=O)N[C@@H](CC(C)C)C(=O)N[C@@H](CC(C)C)C(=O)N[C@@H](Cc1ccccc1)C(=O)N[C@@H](C)C(=O)N[C@H](C(=O)N[C@H](C(=O)N[C@@H](Cc1ccc(O)cc1)C(=O)N[C@@H](CCCCN)C(=O)N[C@@H](CCCCN)C(=O)N[C@@H](CCCCN)C(N)=O)[C@@H](C)CC)[C@@H](C)CC` [KGKKGVIIAILLFAIIYKKK]: the MIC in [11] was 128 µM (≈ 287 µg/mL); in [12], no less than 128 µM; in experiment [13], 128 µM (≈ 287 µg/mL); in experiment [14] it was 128 µM (≈ 287 µg/mL).

On to `CC[C@H](C)[C@@H]1NC(=O)[C@H](C)NC(=O)[C@@H](NC(=O)[C@H](Cc2ccccc2)NC(=O)[C@@H](NC(=O)[C@H](CCCCN)NC(=O)[C@@H]2CCCN2C(=O)[C@H](CC(C)C)NC(=O)[C@H](Cc2ccccc2)NC(=O)[C@@H](N)CCCCN)[C@@H](C)CC)CSSC[C@@H](C(=O)O)NC(=O)[C@H](CCCCN)NC(=O)[C@H](CCCCN)NC(=O)[C@H]([C@@H](C)O)NC1=O` [KFLPKIFCAITKKC], for which the MIC in experiment [15] was no less than 128 µM; in experiment [16], no less than 512 µM; in experiment [17] it was no less than 32 µM; in [18] it was no less than 256 µM; in experiment [13], 512 µM (≈ 839 µg/mL); in [19], 8 µM (≈ 13.1 µg/mL). In [20], this compound showed an MIC of 16 µM (≈ 26.2 µg/mL).

For the compound `CC[C@H](C)[C@H](NC(=O)[C@H](Cc1ccc(O)cc1)NC(=O)[C@H](CC(N)=O)NC(=O)[C@H](CC(N)=O)NC(=O)[C@H](Cc1ccccc1)NC(=O)[C@@H](N)CC(C)C)C(=O)N[C@H](C(=O)N[C@@H](C)C(=O)N[C@@H](C)C(=O)N[C@@H](CC(C)C)C(=O)N[C@@H](CCCCN)C(=O)N[C@@H](CC(C)C)C(=O)N[C@@H](CC(C)C)C(=O)N[C@@H](CCC(=O)O)C(=O)N[C@@H](CCCCN)C(=O)N[C@@H](CC(C)C)C(=O)N[C@@H](Cc1ccc(O)cc1)C(=O)N[C@@H](CCCCN)C(=O)N[C@H](C(N)=O)C(C)C)[C@@H](C)O` [LFNNYITAALKLLEKLYKV], the MIC was 8 µM (≈ 18 µg/mL) in [21], 4 µM (≈ 9.02 µg/mL) in [14], 5.33 µM (≈ 12 µg/mL) in experiment [22] and no less than 32 µM in experiment [3].

As to `CC[C@H](C)[C@H](NC(=O)[C@H](CC(C)C)NC(=O)[C@H](CC(=O)O)NC(=O)[C@H](CO)NC(=O)[C@H](CCCN=C(N)N)NC(=O)[C@@H](N)CO)C(=O)N[C@H](C(=O)N[C@@H](Cc1cnc[nH]1)C(=O)N[C@@H](CCC(N)=O)C(=O)N[C@@H](CCCN=C(N)N)C(=O)N[C@@H](CC(C)C)C(=O)N[C@@H](Cc1ccccc1)C(N)=O)C(C)C` [SRSDLIVHQRLF], the MIC is no less than 272 µM in experiment [1]; no less than 272 µM in [2]; greater than 272 µM with Escherichia coli; greater than 272 µM against Staphylococcus aureus; no less than 272 µM in experiment [3].

For `CC[C@H](C)[C@H](NC(=O)[C@H](CCCCN)NC(=O)[C@H](C)NC(=O)[C@H](C)NC(=O)[C@H](C)NC(=O)[C@H](CCCCN)NC(=O)[C@H](C)NC(=O)[C@H](C)NC(=O)[C@H](C)NC(=O)[C@H](CCCCN)NC(=O)[C@@H](NC(=O)[C@@H](N)Cc1c[nH]c2ccccc12)[C@@H](C)CC)C(=O)N[C@@H](Cc1c[nH]c2ccccc12)C(N)=O` [WIKAAAKAAAKIW], the minimum inhibitory concentration (MIC) in [23] turned out to be 8 µM (≈ 11.4 µg/mL); in experiment [24], 32 µM (≈ 45.7 µg/mL); in [11], 8 µM (≈ 11.4 µg/mL); in the experiment on Escherichia coli UB1005, 8 µM (≈ 11.4 µg/mL); in [13], 32 µM (≈ 45.7 µg/mL); in [25], 8 µM (≈ 11.4 µg/mL). Moreover, the MIC in experiment [26], in [27] and in [22] was 32 µM (≈ 45.7 µg/mL) each time.

The record behind these values is DBAASP.
